Experiments:
[1] = Dissolution test (paddle method, revised 16th Japanese Pharmacopoeia), HPLC; assay type: physicochemical; conditions: 50% dissolution time after coating / before coating (uncoated nucleus)
Method: Dissolution tests were conducted using the tablets manufactured in Comparative Example 2 and Example 2. Water of 37° C./900 ML was used as the test solution for measurement at a number of rotations of 50 RPM based on the paddle method of a dissolution test method in the revised 16th Japanese Pharmacopoeia. The measurement times were 10, 15, 30, 45, 60, 90, 120, 360, 720, 1080, and 1440. The sampling solution was filtered and measured by HPLC to calculate the dissolution rate.
<HPLC Measurement Conditions> • Detector: ultraviolet visible spectrophotometer • Measurement wavelength: 285 NM • Column: WATERS ACQUITY UPLC C18 [2.1 MM Φ×30 MM] • Colum temperature: 40° C. • Amount of flow: 0.5 ML/MIN • Amount injected: […] • Sample cooler: 25° C. • Syringe cleansing solution: water/acetonitrile mixture=1/1 • Mobile phase: water/acetonitrile mixture=4/1
A dissolution test was conducted using the particles manufactured in Example 4 and particles manufactured in Comparative Example 1. The test conditions were the same as Test Example 1.
A dissolution test was conducted using the coated component of interest-containing hollow particles manufactured in Example 5. The test conditions were the same as Test Example 1. […] The dissolution time was extended by a factor of 2 or greater. Improvement in the ability to control release of macromolecules constituting nuclear particles was confirmed for all coated component of interest-containing hollow particles using water insoluble particles as coatable microparticles.
A dissolution test was conducted using the particles manufactured in Example 7-2 and tablets manufactured in Example 8-1 and Comparative Examples 8-1 and 8-2. The test conditions were the same as in Test Example 1.
A dissolution test was conducted using the particles manufactured in Example 11 and Comparative Example 11. The test conditions were the same as Test Example 1.
A dissolution test was conducted using the particles manufactured in Comparative Example 12B. The test conditions were the same as Test Example 1.

[2] = Particle size distribution (laser diffraction, volume based); assay type: physicochemical; conditions: Table 2-2 particle sizes
Method: As used herein, “mean particle size” refers to cumulative 50% point of particle size D50 in volume based measurement of powder particles. Such a mean particle size is measured based on volume with a laser diffraction particle size distribution analyzer (e.g., Powrex Corp: […] VIEWER, Shimadzu Corp: SALD-3000J, or […]: HELOS & RODOS).
The particle size distribution of components of interest, macromolecules, other additives, mixed powder of components of interest and other additives, resulting coated component of interest-containing hollow particles, and coatable microparticles was measured based on volume with a laser diffraction particle size distribution analyzer (e.g., Powrex Corp: […] VIEWER or […]: HELOS & RODOS).

Row | Ratio of 50% dissolution time with respect to nucleus (JP 1st) [1] | D10 [2] [µm] | D50 [2] [µm] | D90 [2] [µm] | Compound
1 |  | 0.73 | 1.99 | 5.16 | NS(=O)(=O)Cc1noc2ccccc12 [Compound A, 1,2-BENZISOXAZOLE-3-METHANESULFONAMIDE]
2 | ≥ 21 |  |  |  | CC(=O)Nc1ccc(O)cc1 [Compound E, N-(4-HYDROXYPHENYL)ACETAMIDE]
3 | ≥ 63 |  |  |  | COc1cc(N)c(Cl)cc1C(=O)NC[C@H]1CN(CC2CCN(C(=O)CO)CC2)CCO1 [Compound D]

Row | Compound | Ratio of 50% dissolution time with respect to nucleus (JP 1st) [1] | D10 [2] [µm] | D50 [2] [µm] | D90 [2] [µm]
4 | Cn1c(=O)c2c(ncn2C)n(C)c1=O [Compound F, 1,3,7-TRIMETHYLPURINE-2,6-DIONE] | ≥ 235 |  |  | 
